According to US20250171420A1 (Monte Rosa Therapeutics, Inc., priority 2022, published 2025):
Where two headings read alike, the source gives them in different places.

Assays:
CK1α = biological target: T1, CK1α (Homo sapiens, UniProt P48729); assay: CK1α NanoBit Assay (HiBiT-tagged CSNK1A1, HEK293 clonal lines); format: cell-based; conditions: HEK293 HiBiT-CSNK1A1/LgBiT cells, 24 h incubation
T1 construct: HEK293 clonal lines with CRISPR KI HiBiT tag on CSNK1A1
Method in brief: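 HEK293 clones carrying a CRISPR knock-in HiBiT tag on CSNK1A1 and stably expressing LgBiT are treated with compound for 24 hours at 37° C, 5% CO2, then read by luminescence. Response is normalized as 100*(S−N)/(P−N) against plate negative and positive controls, and DC50 values are derived.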

CRBN/DDB1 = CRBN/DDB1 (Homo sapiens, UniProt Q96SW2); assay: HTRF binding assay (displacement of Cy5-thalidomide probe from CRBN/DDB1); conditions: CRBN/DDB1 2.5 nM, Cy5-Thalidomide 100 nM, 30 min; geometric mean; read-out: HTRF_Thali_Disp_DR_geo_IC50
Sequence of CRBN/DDB1 (Q96SW2 whole entry, species assumed): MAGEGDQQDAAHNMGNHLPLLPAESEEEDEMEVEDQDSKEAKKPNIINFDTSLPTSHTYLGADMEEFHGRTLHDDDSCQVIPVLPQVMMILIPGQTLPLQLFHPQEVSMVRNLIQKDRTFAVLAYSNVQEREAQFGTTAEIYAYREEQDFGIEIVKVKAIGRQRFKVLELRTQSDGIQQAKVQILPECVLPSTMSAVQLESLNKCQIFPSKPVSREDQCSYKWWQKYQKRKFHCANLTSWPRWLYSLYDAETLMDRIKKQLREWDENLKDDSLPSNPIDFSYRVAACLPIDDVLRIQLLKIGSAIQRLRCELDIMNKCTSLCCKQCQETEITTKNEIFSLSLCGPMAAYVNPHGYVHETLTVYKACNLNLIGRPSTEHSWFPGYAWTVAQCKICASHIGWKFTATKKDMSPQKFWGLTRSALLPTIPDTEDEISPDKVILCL
Sequence of CRBN/DDB1 (Q16531 whole entry partner, species assumed): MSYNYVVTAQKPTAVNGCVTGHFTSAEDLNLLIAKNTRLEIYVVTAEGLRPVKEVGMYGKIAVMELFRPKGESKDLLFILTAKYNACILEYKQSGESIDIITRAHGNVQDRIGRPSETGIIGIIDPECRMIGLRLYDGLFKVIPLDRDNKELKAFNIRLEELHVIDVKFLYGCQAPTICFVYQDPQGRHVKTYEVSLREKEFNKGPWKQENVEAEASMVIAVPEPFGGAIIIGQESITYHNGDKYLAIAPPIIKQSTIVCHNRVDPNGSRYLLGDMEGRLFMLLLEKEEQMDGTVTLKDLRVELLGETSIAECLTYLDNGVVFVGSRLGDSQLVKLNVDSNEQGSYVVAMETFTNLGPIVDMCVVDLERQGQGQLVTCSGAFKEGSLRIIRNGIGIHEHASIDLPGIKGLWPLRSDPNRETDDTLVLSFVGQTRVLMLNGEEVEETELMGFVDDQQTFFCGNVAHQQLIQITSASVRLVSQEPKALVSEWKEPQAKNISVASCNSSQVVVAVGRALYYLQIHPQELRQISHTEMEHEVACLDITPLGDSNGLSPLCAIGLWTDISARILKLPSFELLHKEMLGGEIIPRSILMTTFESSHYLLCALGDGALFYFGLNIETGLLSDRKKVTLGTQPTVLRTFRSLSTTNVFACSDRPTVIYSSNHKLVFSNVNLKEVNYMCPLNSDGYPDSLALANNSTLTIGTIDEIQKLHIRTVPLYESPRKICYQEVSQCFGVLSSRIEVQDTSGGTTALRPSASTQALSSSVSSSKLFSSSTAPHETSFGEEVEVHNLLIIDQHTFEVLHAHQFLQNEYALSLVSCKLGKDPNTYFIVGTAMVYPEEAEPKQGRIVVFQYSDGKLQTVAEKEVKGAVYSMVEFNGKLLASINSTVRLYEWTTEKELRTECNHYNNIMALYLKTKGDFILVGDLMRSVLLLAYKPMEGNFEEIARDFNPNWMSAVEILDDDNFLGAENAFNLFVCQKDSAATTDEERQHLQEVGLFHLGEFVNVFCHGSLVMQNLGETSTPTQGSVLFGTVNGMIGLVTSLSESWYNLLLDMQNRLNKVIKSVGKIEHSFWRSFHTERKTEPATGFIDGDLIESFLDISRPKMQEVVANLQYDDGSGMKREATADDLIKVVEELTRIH
Method in brief: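 HTRF displacement of Cy5-thalidomide (100 nM) from His-tagged CRBN/DDB1 (2.5 nM) with anti-His Tb cryptate in 20 mM HEPES, 20 mM NaCl, 0.2 mM TCEP, 0.2 mM EDTA, 0.005% Tween20. 10-point 1:3 series, 30 min ambient. 665/620 nm ratio fitted 4-parameter for IC50; Ki by Cheng-Prusoff from geometric-mean IC50.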

SKCO1 cell line = assay: Growth inhibition, CyQUANT Direct Cell Proliferation Assay, SKCO1; format: cell-based; conditions: Homo sapiens
Experimental: (§1) SKCO1, LS180, and LS174T cell lines were purchased from ATCC. CW2 cell line was purchased from Riken. GP2D cell line was purchased from Sigma/ECACC. All cell lines were cultured in manufacturer's recommended media at 37° C., 5% CO2. Briefly, cells were suspended in 200 μL of media and seeded at 300 to 1,800 cells per well in tissue culture treated 96-well plates with black walls and clear bottom. Plates were incubated overnight and initial (To) read was performed the following day using CyQUANT Direct Cell Proliferation Assay Kit (Thermo Fisher Scientific) according to manufacturer's protocol. All compounds were solubilized in DMSO and prepared at 3-fold serial dilution, using 9 points starting at 30 μM as highest concentration, administered to cells and incubated for 120 to 168 hours, at which point CyQUANT assay measurement was performed using Acumen Cellista instrument (Ex/Em 480/520 nm). Media-only wells were used as blank, and 0.3% DMSO was used as DMSO-treated cell control. Growth inhibition (percent response) was calculated using the following formula in Excel: “=if ([Compound treated Day N]>[Untreated Day 0, AVG], ([Compound treated Day N]−[Untreated Day 0, AVG])/([Untreated Day N]−[Untreated Day 0, AVG])*100, ([Compound Treated Day N]−[Untreated Day 0, AVG])/([Untreated Day 0, AVG])*100)”. GI50 is the response corresponding to the 50% of untreated control.
(§2) GI50 data are reported in Tables 4a, 4b, 4c, 4d, and 4e for compounds in Table 1. In Tables 4a, 4b, 4c, 4d, and 4e below, According to the code, A represents a GI50 value of ≤0.1 μM, B represents a GI50 value>0.1 μM and ≤1 μM, C represents an GI50 value>1 μM.

CW2 cell line = assay: Growth inhibition, CyQUANT Direct Cell Proliferation Assay, CW2; format: cell-based; conditions: Homo sapiens
Experimental: as §1, §2

GP2D cell line = assay: Growth inhibition, CyQUANT Direct Cell Proliferation Assay, GP2D; format: cell-based
Experimental: as §1, §2

LS180 cell line = assay: Growth inhibition, CyQUANT Direct Cell Proliferation Assay, LS180; format: cell-based; conditions: Homo sapiens
Experimental: as §1, §2

LS174T cell line = assay: Growth inhibition, CyQUANT Direct Cell Proliferation Assay, LS174T; format: cell-based; conditions: Homo sapiens
Experimental: as §1, §2

[1] = SK-CO-1, read-out: SKCO1 GI50 (μM)
[2] = LS180, read-out: LS180 GI50 (μM)
[3] = SK-CO-1, SKCO1, 120 to 168 hours, read-out: SKCO1 GI50
[4] = CW-2, CW2, 120 to 168 hours, read-out: CW2 GI50
[5] = GP2D, 120 to 168 hours, read-out: GP2D GI50
[6] = LS180, 120 to 168 hours, read-out: LS180 GI50
[7] = 120 to 168 hours, read-out: LS174T GI50

T1 sequence (P48729 whole entry): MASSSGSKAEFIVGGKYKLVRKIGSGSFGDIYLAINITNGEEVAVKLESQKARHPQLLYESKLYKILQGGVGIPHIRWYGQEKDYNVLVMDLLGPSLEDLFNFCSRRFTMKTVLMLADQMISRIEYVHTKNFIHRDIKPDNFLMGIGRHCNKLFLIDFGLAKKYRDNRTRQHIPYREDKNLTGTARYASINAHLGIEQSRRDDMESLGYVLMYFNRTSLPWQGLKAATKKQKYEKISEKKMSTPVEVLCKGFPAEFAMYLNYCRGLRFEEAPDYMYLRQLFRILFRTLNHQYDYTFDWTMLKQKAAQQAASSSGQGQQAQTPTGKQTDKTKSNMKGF
T1 sequence (Q96SW2 whole entry, further chain): as the sequence (Q96SW2 whole entry, species assumed) above
T1 sequence (Q16531 2-1140 partner limits assumed): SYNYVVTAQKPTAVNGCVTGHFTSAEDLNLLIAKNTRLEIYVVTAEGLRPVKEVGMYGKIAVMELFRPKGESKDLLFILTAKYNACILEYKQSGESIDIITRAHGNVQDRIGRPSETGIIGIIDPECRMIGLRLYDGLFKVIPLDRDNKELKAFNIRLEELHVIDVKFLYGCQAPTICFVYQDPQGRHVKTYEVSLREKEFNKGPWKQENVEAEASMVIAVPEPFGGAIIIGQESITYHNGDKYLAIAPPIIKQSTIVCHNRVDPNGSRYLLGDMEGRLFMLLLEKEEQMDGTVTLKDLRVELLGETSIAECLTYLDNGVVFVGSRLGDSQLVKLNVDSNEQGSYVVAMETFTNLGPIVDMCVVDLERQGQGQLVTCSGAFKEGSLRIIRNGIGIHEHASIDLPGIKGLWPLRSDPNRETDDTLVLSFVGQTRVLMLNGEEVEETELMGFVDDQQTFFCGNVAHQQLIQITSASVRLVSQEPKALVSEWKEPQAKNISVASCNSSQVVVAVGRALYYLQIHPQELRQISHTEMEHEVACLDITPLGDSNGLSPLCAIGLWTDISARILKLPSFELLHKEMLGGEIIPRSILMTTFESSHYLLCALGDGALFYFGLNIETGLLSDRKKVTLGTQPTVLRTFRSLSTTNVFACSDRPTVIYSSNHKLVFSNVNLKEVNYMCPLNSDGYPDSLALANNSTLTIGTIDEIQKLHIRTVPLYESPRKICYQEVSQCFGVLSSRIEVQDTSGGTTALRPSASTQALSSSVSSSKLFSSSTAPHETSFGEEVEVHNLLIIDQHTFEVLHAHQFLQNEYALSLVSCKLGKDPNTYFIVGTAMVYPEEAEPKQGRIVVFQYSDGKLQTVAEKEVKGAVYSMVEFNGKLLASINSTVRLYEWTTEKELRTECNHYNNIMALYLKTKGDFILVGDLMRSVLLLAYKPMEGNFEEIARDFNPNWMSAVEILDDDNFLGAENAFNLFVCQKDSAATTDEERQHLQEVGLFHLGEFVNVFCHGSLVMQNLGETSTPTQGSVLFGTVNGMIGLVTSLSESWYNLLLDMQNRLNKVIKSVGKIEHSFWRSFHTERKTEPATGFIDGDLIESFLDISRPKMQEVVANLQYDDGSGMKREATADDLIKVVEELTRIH

SMILES	DC50 (CK1α)	IC50 (CRBN/DDB1)	GI50 (SKCO1 cell line; [1])	GI50 (CW2 cell line; CW-2, read-out: CW2 GI50 (μM))	GI50 (GP2D cell line; GP2d, read-out: GP2D GI50 (μM))	GI50 (LS180 cell line; [2])	GI50 (LS174T cell line; read-out: LS174T GI50 (μM))	GI50 (SKCO1 cell line; [3])	GI50 (CW2 cell line; [4])	GI50 (GP2D cell line; [5])	GI50 (LS180 cell line; [6])	GI50 (LS174T cell line; [7])
O=C1CCC(N2Cc3cc(NC(=O)N4CC5(CC5)c5ccccc54)ccc3C2=O)C(=O)N1 (centres unmarked) [Compound 210, N-(2-(2,6-dioxopiperidin-3-yl)-1-oxoisoindolin-5-yl)spiro[cyclopropane-1,3′-indoline]-1′-carboxamide]	< 0.1 µM	100 to 1000 nM	< 0.1 µM	< 0.1 µM	< 0.1 µM	0.1 to 1 µM	< 0.1 µM	–	–	–	–	–
CC1(c2ccc3c(c2)CCN3C(=O)Nc2ccc3c(c2)CN(C2CCC(=O)NC2=O)C3=O)CC1 (centres unmarked) [Compound 344, N-(2-(2,6-dioxopiperidin-3-yl)-1-oxoisoindolin-5-yl)-5-(1-methylcyclopropyl)indoline-1-carboxamide]	< 0.1 µM	100 to 1000 nM	–	–	–	–	–	< 0.1 µM	< 0.1 µM	< 0.1 µM	0.1 to 1 µM	0.1 to 1 µM
COC[C@@H]1Cc2ccccc2N1C(=O)Nc1ccc2c(c1)CN(C1CCC(=O)NC1=O)C2=O (stereo in doubt) [Compound 337, (S)—N-(2-((S)-2,6-dioxopiperidin-3-yl)-1-oxoisoindolin-5-yl)-2-(methoxymethyl)indoline-1-carboxamide]	< 0.1 µM	100 to 1000 nM	–	–	–	–	–	< 0.1 µM	0.1 to 1 µM	0.1 to 1 µM	0.1 to 1 µM	0.1 to 1 µM
O=C1CCC(N2Cc3cc(NC(=O)N4CC5(CCOCC5)c5ccccc54)ccc3C2=O)C(=O)N1 (centres unmarked) [Compound 189]	< 0.1 µM	100 to 1000 nM	–	–	–	–	–	< 0.1 µM	< 0.1 µM	< 0.1 µM	< 0.1 µM	< 0.1 µM
O=C1CCC(N2Cc3cc(NC(=O)N4CCc5ccccc54)ccc3C2=O)C(=O)N1 (centres unmarked) [Compound 103, N-(2-(2,6-dioxopiperidin-3-yl)-1-oxoisoindolin-5-yl)indoline-1-carboxamide]	< 0.1 µM	100 to 1000 nM	–	–	–	–	–	< 0.1 µM	0.1 to 1 µM	< 0.1 µM	0.1 to 1 µM	0.1 to 1 µM
CC1CN(C(=O)Nc2ccc3c(c2)CN(C2CCC(=O)NC2=O)C3=O)c2ccccc21 (stereo in doubt) [Compound 283, (3R)—N-(2-(2,6-dioxopiperidin-3-yl)-1-oxoisoindolin-5-yl)-3-methylindoline-1-carboxamide]	< 0.1 µM	100 to 1000 nM	–	–	–	–	–	< 0.1 µM	0.1 to 1 µM	< 0.1 µM	0.1 to 1 µM	0.1 to 1 µM
Cc1ccc2c(c1)CCN2C(=O)Nc1ccc2c(c1)CN(C1CCC(=O)NC1=O)C2=O (centres unmarked) [Compound 214, N-(2-(2,6-dioxopiperidin-3-yl)-1-oxoisoindolin-5-yl)-5-methylindoline-1-carboxamide]	< 0.1 µM	100 to 1000 nM	–	–	–	–	–	< 0.1 µM	< 0.1 µM	< 0.1 µM	0.1 to 1 µM	0.1 to 1 µM
O=C1CCC(N2Cc3cc(NC(=O)N4CCc5cc(F)ccc54)ccc3C2=O)C(=O)N1 (centres unmarked) [Compound 178, N-(2-(2,6-dioxopiperidin-3-yl)-1-oxoisoindolin-5-yl)-5-fluoroindoline-1-carboxamide]	< 0.1 µM	100 to 1000 nM	0.1 to 1 µM	0.1 to 1 µM	0.1 to 1 µM	0.1 to 1 µM	0.1 to 1 µM	–	–	–	–	–
O=C1CCC(N2Cc3cc(NC(=O)N4Cc5ccccc5C4)ccc3C2=O)C(=O)N1 (centres unmarked) [Compound 106, N-(2-(2,6-dioxopiperidin-3-yl)-1-oxoisoindolin-5-yl)isoindoline-2-carboxamide]	< 0.1 µM	100 to 1000 nM	–	–	–	–	–	0.1 to 1 µM	0.1 to 1 µM	0.1 to 1 µM	> 1 µM	> 1 µM
C[C@H]1CN(C(=O)Nc2ccc3c(c2)CN(C2CCC(=O)NC2=O)C3=O)c2ccccc21 (some centres unmarked) [Compound 284]	< 0.1 µM	100 to 1000 nM	–	–	–	–	–	< 0.1 µM	< 0.1 µM	0.1 to 1 µM	0.1 to 1 µM	< 0.1 µM
O=C1CCC(N2Cc3cc(NC(=O)N4CCc5cc(C(F)(F)F)ncc54)ccc3C2=O)C(=O)N1 (centres unmarked) [Compound 287, N-(2-(2,6-dioxopiperidin-3-yl)-1-oxoisoindolin-5-yl)-5-(trifluoromethyl)-2,3-dihydro-1H-pyrrolo[2,3-c]pyridine-1-carboxamide]	< 0.1 µM	100 to 1000 nM	< 0.1 µM	< 0.1 µM	< 0.1 µM	0.1 to 1 µM	< 0.1 µM	–	–	–	–	–
COC[C@@H]1Cc2ccccc2N1C(=O)Nc1ccc2c(c1)CN(C1CCC(=O)NC1=O)C2=O (stereo in doubt) [Compound 334, (S)—N-(2-((R)-2,6-dioxopiperidin-3-yl)-1-oxoisoindolin-5-yl)-2-(methoxymethyl)indoline-1-carboxamide]	< 0.1 µM	> 1000 nM	–	–	–	–	–	0.1 to 1 µM	0.1 to 1 µM	0.1 to 1 µM	0.1 to 1 µM	0.1 to 1 µM
O=C1CCC(N2Cc3cc(NC(=O)N4CCc5ccc(F)cc54)ccc3C2=O)C(=O)N1 (centres unmarked) [Compound 186, N-(2-(2,6-dioxopiperidin-3-yl)-1-oxoisoindolin-5-yl)-6-fluoroindoline-1-carboxamide]	< 0.1 µM	100 to 1000 nM	< 0.1 µM	< 0.1 µM	< 0.1 µM	< 0.1 µM	< 0.1 µM	–	–	–	–	–
N#Cc1cccc2c1CCN2C(=O)Nc1ccc2c(c1)CN(C1CCC(=O)NC1=O)C2=O (centres unmarked) [Compound 148, 4-cyano-N-(2-(2,6-dioxopiperidin-3-yl)-1-oxoisoindolin-5-yl)indoline-1-carboxamide]	< 0.1 µM	< 100 nM	–	–	–	–	–	0.1 to 1 µM	0.1 to 1 µM	0.1 to 1 µM	0.1 to 1 µM	0.1 to 1 µM
